Data reported in patent US20150056702A1, “METHOD AND KIT FOR CULTURING STEM CELLS” (China Medical University, priority 2013, published 2015).

Experiments:
[1] = tested on: ES cells; assay: DNA microarray analysis of ES cells; type: cell-based, mouse
Protocol: The DNA microarray analysis was used to determine whether the gene expression profiles in various pathways in cells will be affected when the cells were cultured by a BP-containing medium.
An experimental group medium (BP10 or BP 40), a LIF-containing medium (without BP), and a control group medium (without BP) were used respectively in a 6-well culture dish to culture ES cells with an initial density of 1×10^4 per well for 24 hours. Next, performing total RNA extraction and the obtained RNA was labeled with Cy3. Samples were hybridized to Agilent Mouse G3 Whole Genome Oligo 86×60K microarrays (Agilent) according to the manufacturer's instructions. Arrays were scanned with a Microarray Scanner System and data was analyzed by using a GeneSpring GX software (Agilent).
According to the related research at present, the Jak-Stat signaling pathway is the most relevant in terms of stem cell self-renewal and pluripotency maintenance.

[2] = tested on: iPS cells; assay: AP staining and immunofluorescence staining of the generated iPS cells; type: cell-based, mouse; conditions: experimental group (T+P), BP10 medium
Protocol: The AP activity of the obtained iPS cells was determined by AP staining. The expression levels of Nanog and SSEA1 as well as the embryoid body formation and differentiation were observed by immunofluorescence staining.

[3] = BP40 medium (about 40 μg BP/ml), ES cells, 24 hours

CCCC=C1OC(=O)c2ccccc21 [BP, n-butylidenephthalide]
Amino acid metabolism: D, number of down-regulated genes [1, 3]: 2 | Amino acid metabolism: I, number of up-regulated genes [1, 3]: 0 | Amino acid metabolism: No. (regulated genes/genes of function) [1, 3]: 2/23 | Apoptosis: % of genes regulated [1, 3]: 7.4% | Apoptosis: D, number of down-regulated genes [1, 3]: 6 | Apoptosis: I, number of up-regulated genes [1, 3]: 1 | Apoptosis: No. (regulated genes/genes of function) [1, 3]: 7/94 | Calcium signaling pathway: % of genes regulated [1, 3]: 21.9% | Calcium signaling pathway: D, number of down-regulated genes [1, 3]: 30 | Calcium signaling pathway: I, number of up-regulated genes [1, 3]: 2 | Calcium signaling pathway: No. (regulated genes/genes of pathway) [1, 3]: 32/146 | Cell adhesion molecules: % of genes regulated [1, 3]: 22.7% | Cell adhesion molecules: D, number of down-regulated genes [1, 3]: 21 | Cell adhesion molecules: I, number of up-regulated genes [1, 3]: 13 | Cell adhesion molecules: No. (regulated genes/genes of function) [1, 3]: 34/150 | Cell communication: % of genes regulated [1, 3]: 21.7% | Cell communication: D, number of down-regulated genes [1, 3]: 18 | Cell communication: I, number of up-regulated genes [1, 3]: 2 | Cell communication: No. (regulated genes/genes of function) [1, 3]: 20/92 | Cell cycle: % of genes regulated [1, 3]: 3.7% | Cell cycle: D, number of down-regulated genes [1, 3]: 6 | Cell cycle: I, number of up-regulated genes [1, 3]: 0 | Cell cycle: No. (regulated genes/genes of function) [1, 3]: 6/163 | ECM-receptor interaction: % of genes regulated [1, 3]: 25.7% | ECM-receptor interaction: D, number of down-regulated genes [1, 3]: 16 | ECM-receptor interaction: I, number of up-regulated genes [1, 3]: 3 | ECM-receptor interaction: No. (regulated genes/genes of pathway) [1, 3]: 19/74 | Insulin signaling pathway: % of genes regulated [1, 3]: 4.9% | Insulin signaling pathway: D, number of down-regulated genes [1, 3]: 3 | Insulin signaling pathway: I, number of up-regulated genes [1, 3]: 2 | Insulin signaling pathway: No. (regulated genes/genes of pathway) [1, 3]: 5/102 | JAK-STAT signaling pathway: % of genes regulated [1, 3]: 25% | JAK-STAT signaling pathway: D, number of down-regulated genes [1, 3]: 27 | JAK-STAT signaling pathway: I, number of up-regulated genes [1, 3]: 8 | JAK-STAT signaling pathway: No. (regulated genes/genes of pathway) [1, 3]: 35/140 | Lipid metabolism: % of genes regulated [1, 3]: 12.8% | Lipid metabolism: D, number of down-regulated genes [1, 3]: 12 | Lipid metabolism: I, number of up-regulated genes [1, 3]: 2 | Lipid metabolism: No. (regulated genes/genes of function) [1, 3]: 10/109 | MAPK signaling: % of genes regulated [1, 3]: 10.6% | MAPK signaling: D, number of down-regulated genes [1, 3]: 19 | MAPK signaling: I, number of up-regulated genes [1, 3]: 5 | MAPK signaling: No. (regulated genes/genes of pathway) [1, 3]: 24/227 | PPAR signaling pathway: % of genes regulated [1, 3]: 36.5% | PPAR signaling pathway: D, number of down-regulated genes [1, 3]: 14 | PPAR signaling pathway: I, number of up-regulated genes [1, 3]: 12 | PPAR signaling pathway: No. (regulated genes/genes of pathway) [1, 3]: 27/74 | TGF-β signaling pathway: % of genes regulated [1, 3]: 13.3% | TGF-β signaling pathway: D, number of down-regulated genes [1, 3]: 1 | TGF-β signaling pathway: I, number of up-regulated genes [1, 3]: 5 | TGF-β signaling pathway: No. (regulated genes/genes of pathway) [1, 3]: 6/45 | VEGF signaling pathway: % of genes regulated [1, 3]: 0% | VEGF signaling pathway: D, number of down-regulated genes [1, 3]: 0 | VEGF signaling pathway: I, number of up-regulated genes [1, 3]: 0 | VEGF signaling pathway: No. (regulated genes/genes of pathway) [1, 3]: 0/31 | Wnt signaling pathway: % of genes regulated [1, 3]: 9.1% | Wnt signaling pathway: D, number of down-regulated genes [1, 3]: 6 | Wnt signaling pathway: I, number of up-regulated genes [1, 3]: 0 | Wnt signaling pathway: No. (regulated genes/genes of pathway) [1, 3]: 6/66 | focal adhesion: % of genes regulated [1, 3]: 12.7% | focal adhesion: D, number of down-regulated genes [1, 3]: 20 | focal adhesion: I, number of up-regulated genes [1, 3]: 2 | focal adhesion: No. (regulated genes/genes of function) [1, 3]: 22/173 | tight junction: % of genes regulated [1, 3]: 16.7% | tight junction: D, number of down-regulated genes [1, 3]: 9 | tight junction: I, number of up-regulated genes [1, 3]: 2 | tight junction: No. (regulated genes/genes of function) [1, 3]: 11/66 | pathways of the genes significantly regulated ([1]; ES cells cultured with the BP-containing medium, result in words): majorly involved in the PPAR, ECM-receptor interaction, and/or Jak-Stat signaling pathways | expression levels of AP, Nanog and SSEA1 in the obtained iPS cells [2]: higher expression levels of AP, Nanog, and SSEA1
